Experimental findings from patent publication US20200317636A1, “DEUTERATED AZOLE COMPOUNDS AND PREPARATION METHOD THEREFOR AND USES THEREOF” (priority 2017, published 2020) are described below.

For series [1] the following is noted: human, microsomes.
Series [2] is described as follows: in vitro. The conditions noted are these: human, microsomes.
In series [3] the test system is Candida albicans (standard strain SC5314). Put plainly: In vitro bacteriostatic experiment (minimum in vitro antifungal concentration, MIC80). It counts as cell-based. As for the experimental part:
(I) Experimental method: The conventional in vitro bacteriostatic experiment method was adopted (for details, see: Antimicrob Agents Chemother 1995, 39 (5): 1169).
The fungal strain selected for this experiment was provided by the Fungal Department of Shanghai Changzheng Hospital (or purchased from the Institute of Materia Medica, Chinese Academy of Sciences).
Candida albicans (standard strain SC5314)
Preparation of bacterial suspension: The above fungi were cultured in YEPD liquid medium at 35° C. for 16 hours, activated twice, counted with a blood cell counting plate, and the bacteria concentration was adjusted to 1*10^4 to 1*10^5 cells/mL with RPM1640 liquid medium.
Preparation of drug solution: The test compound of the invention was dissolved in dimethyl sulfoxide to prepare a 0.8 mg/mL drug storage solution, and the 0.8 mg/mL drug storage solution was diluted to 8 μg/mL with RPM1640 before the experiment.
Inoculation: RPM1640 100 μL was added as a blank control in well 1 of the 96-well plate; 100 μL of the bacterial suspension was added in each of wells 3-12, 200 μL of the bacterial suspension and 2 μL of the drug solution were added in well 2 and the drug solution in wells 2-11 was diluted […], and the drug concentrations of these wells were 8, 4, 2, 1, 0.5, 0.25, 0.125, 0.0625, 0.0313, and 0.0156 μg/mL, respectively. No drug solution was added in well 12 to make positive control. The drug control was fluconazole.

Setting [4] is: Candida albicans, SC5314, read-out: Minimum in vitro antifungal concentration (MIC80).

Converted amounts (≈) assume the structure as drawn. Read-outs that look alike come from different tables or passages of the source.

On to `Cc1ncc2n1-c1ccc(Cl)cc1C(c1ccccc1F)=NC2` [Midazolam], for which, in series [1], the “CLint, microsome (in vitro intrinsic clearance)” value is reported as 274 μL × min^−1 × mg^−1 proteins and the “k (clearance constant)” value amounted to 0.0548 min⁻¹. In addition, the half-life in series [2] stood at 0.212 h.

Turning to `[2H]C([2H])(n1cnnn1)C(O)(c1ccc(F)cc1F)C(F)(F)c1ccc(C#Cc2ccc(OCc3ccc(C#N)cc3)cc2)cn1` (stereo not drawn) [Compound D3], in series [3] (setting [4]), the MIC80 stood at 0.0313 µg/mL (≈ 0.0534 µM).

With `N#Cc1ccc(COc2ccc(C#Cc3ccc(C(F)(F)[C@](O)(Cn4cnnn4)c4ccc(F)cc4F)nc3)cc2)cc1` [VT-1598], the MIC80 in series [3] (setting [4]) amounted to 0.0156 µg/mL (≈ 0.0267 µM). In series [1], the “CLint, microsome (in vitro intrinsic clearance)” value is on record as 10.6 μL × min^−1 × mg^−1 proteins and the “k (clearance constant)” value amounted to 0.0053 min⁻¹. The compound further displayed a half-life at 1 μM in series [2] of 2.33 h.

As to `[2H]C([2H])(Oc1ccc(C#Cc2ccc(C(F)(F)[C@](O)(Cn3cnnn3)c3ccc(F)cc3F)nc2)cc1)c1ccc(C#N)cc1` [Compound D2], the MIC80 in series [3] (setting [4]) came to 0.0156 µg/mL (≈ 0.0266 µM).

As to `OC(Cn1cncn1)(Cn1cncn1)c1ccc(F)cc1F` [Fluconazole], the MIC80 in series [3] (Candida albicans SC5314, RPM1640 medium, 96-well dilution 8-0.0156 μg/mL, read-out: Minimum in vitro antifungal concentration (MIC80)) came to 0.5 µg/mL (≈ 1.63 µM).

On to `[2H]C(Oc1ccc(C#Cc2ccc(C(F)(F)[C@](O)(Cn3cnnn3)c3ccc(F)cc3F)nc2)cc1)c1ccc(C#N)cc1` (stereo partly drawn) [Compound D1], for which, in series [3] (setting [4]), the MIC80 came out at 0.0156 µg/mL (≈ 0.0266 µM).

With `[2H]c1nnnn1CC(O)(c1ccc(F)cc1F)C(F)(F)c1ccc(C#Cc2ccc(OCc3ccc(C#N)cc3)cc2)cn1` (stereo not drawn) [Compound D5], the MIC80 in series [3] (setting [4]) was 0.0156 µg/mL (≈ 0.0266 µM).

In general, half-life refers to how long it takes for the measured level to halve. A high value points to slow decline.
